Laboratory results taken from US20130136772A1, “REGULATION OF IMMUNE RESPONSE BY COLOCYNTHIN AND/OR ITS DERIVATIVES” (priority 2010, published 2013).

How the values were obtained:
TNF-α [1] = experiment: In vivo TNF-α estimation in serum of LPS challenged mice; set-up: species or system balb/c mice; details: 1, 2.5, 5 and 10 mg/kg oral for 6 days, LPS 1 mg/kg i.v., serum 90 min after LPS
Experimental: Invivo experiments were carried out using balb/c mice that were orally administrated with graded oral doses of AD-B-63B (1, 2.5, 5 and 10 mg/kg) for 6 days and challenged with LPS. Nitric oxide (NO) is an important mediator of diverse physiologic and pathologic processes, including many inflammatory diseases [Abramson S B, Amin A R, Clancy R M, Attur M, (2001). The role of nitric oxide in tissue destruction. Best Practice & Research Clinical Rheumatology; 15: 831-845]. Several lines of evidence implicate NO in the pathogenesis of inflammation. For example, rodents in animal models of arthritis generate abundant quantities of NO, as reflected in high levels of serum and urinary NO that develop in association with disease manifestations [Stefanovic-Racic M, Meyers K, Meschter C, Coffey J W, Hoffman R A, Evans C H, (1994). Monomethyl arginine, an inhibitor of nitric oxide synthase, suppresses the development of adjuvant arthritis in rats. Arthritis & Rheumatism; 37: 1062-1069.] [McCartney-Francis N, Allen J B, Mizel D E, Albina J E, Xie Q W, Nathan C F, Wahl S M, (1993). Suppression of arthritis by an inhibitor of nitric oxide synthase. Journal of Experimental Medicine; 178: 749-754.] [Weinberg J B, (1998). […] TNF-α, IL-1 beta and Nitric oxide production was evaluated by a commercial ELISA kits (R&D Systems) in serum from AD-B-63B treated mice, 90 min after LPS injection.

TNF-α [2] = experiment: Intracellular TNF-α estimation in LPS activated murine neutrophils by flowcytometry; assay type: cell-based; details: for Expression of intracellular TNF-alpha, Mean ± S.E: LPS 10 ng/ml, 3 h
Experimental: Flowcytometric studies were carried out to determine the anti-inflammatory effect of AD-B-63B on TNF-α cytokine expression in LPS activated murine neutrophils. Neutrophils play essential roles in host defence through their ability to clear bacterial infections. Their inappropriate activation contributes to a variety of inflammatory diseases, from the acute respiratory distress syndrome to asthma, chronic obstructive pulmonary disease and rheumatoid arthritis. TNF-α was chosen as the target for anti-inflammatory activity because of the fact that it is a pro-inflammatory cytokine and plays a major role in the pathogenesis of septic shock induced by LPS (Lipopolysaccharide) endotoxin injection [Remick, D. G.; Strieter, R. M.; Eskandari, M. K.; Nguyen, D. T.; Genord, M. A.; Raiford, C. L. Am. J. Path. 1990, 136, 49.]. LPS is an important triggering factor for in vivo systemic inflammatory response [Bone, R. C. Chest 1991, 100, 802]. LPS activates neutrophils via engagement of TLR4 (Toll-like receptor 4),[Sabroe, I.; Read, R. C.; Whyte, M. K. B.; Dockrell, D. H.; Vogel, S. N.; Dower, S. K. J. Immunol. 2003, 171, 1630.] resulting in the induction of a characteristic pro-inflammatory phenotype and prolongation of cell lifespan [Lee, A.; Whyte, M. K. B.; Haslett, C. J. Leukoc. Biol. 1993, 54, 283].
The anti-inflammatory activity of AD-B-63B was measured by the estimation of intracellular tumor necrosis factor alpha (TNF-α) expression in a gated population of neutrophils [Clara, B., R. C. Arancha, G. M. Andre's, P. Atanasio, A. Julia, and O. Alberto. 2003. A new method for detecting TNF-α-secreting cells using direct immunofluorescence surface membrane stainings. J. Immuno. Methods 264:77-87.]. Murine blood was subjected to centrifugation at 250× g for 20 min. Three layers were formed: an upper layer of platelet-rich plasma, a buffy coat middle layer and a lower layer formed of red blood cells. The middle layer was removed and subjected to Histopaque 1077 (Sigma) gradient separation. The upper layer containing neutrophils was removed and transferred to FACS tubes (Becton Dickinson). Lipopolysaccharide (LPS) derived from Escherichia coli (Sigma) was added at a concentration of 10 ng/ml for the stimulation of the cells. AD-B-63B was added at graded concentrations of 0.5, 1, 2.5, 5, 10 and 20 μg/ml. Samples were incubated for 3 h at 37° C. ( Table 1) Controls consisted of LPS-stimulated cells (LPS control). Further processing was done by the addition of FACS permeabilizing solution (Becton Dickinson), followed by the addition of phycoerythrin (PE)-labeled anti-mouse TNF-α. (Becton Dickinson). The cells were incubated in the dark, and after being washed with sterile PBS, samples were resuspended in PBS (pH 7.4) and acquired directly on the flow cytometer (FACS CANTO; Becton Dickinson). A fluorescence trigger was set on the […] parameter of the gated neutrophil populations (10,000 events). Rolipram at 100 μg/ml was used as standard inhibitor of TNF-α in this study. Fluorescence compensation, data analysis and data presentation were performed using software (Becton Dickinson) (FIG. 1) [Pandey A, Bani S, Kaul S, Sangawan P L; 2010, Selective Th1 upregulation by ethyl acetate fraction of Labisia pumila; 132 (2010) 309-315].

IL-2 = experiment: Intracellular IL-2 expression in SRBC immunised mice; assay type: in vivo, Swiss albino mice; details: graded doses; most significant suppression at 10 mg/kg p.o.
Experimental: (§1) Estimation of intracellular cytokines: The animals were immunized as mentioned above. After 6 days of drug administration, the animals were challenged on day 7. After 48 h of challenge, the blood was collected in the tubes containing EDTA (anti-coagulant) from retro-orbital plexes of animals to determine the effect of test material on the expression of intracellular IL-2 and IFN-γ (Th1) and IL-4 (Th2) cytokines. In this study, PE labeled IL-2 monoclonal antibody was used in one set and PE labeled IFN-γ and FITC labelled IL-4 monoclonal antibody was used in the other set of experimentation (FIG. 7, 8, 9).

IFN-γ = experiment: Intracellular IFN-γ expression in SRBC immunised mice; assay type: in vivo, Swiss albino mice; details: graded doses; inhibition observed at 5 and 10 mg/kg p.o.
Experimental: as §1

CC(=O)OC(C)(C)/C=C/C(=O)[C@](C)(O)[C@H]1[C@H](O)C[C@@]2(C)[C@@H]3CC=C4[C@@H](C=C(O[C@@H]5O[C@H](CO)[C@@H](O)[C@H](O)[C@H]5O)C(=O)C4(C)C)[C@]3(C)C(=O)C[C@]12C [AD-B-63B, 2-O-β-D-glucopyranosyl cucurbitacin E]
Level of serum TNF-α (TNF-α [1]): significant reduction | % TNF-alpha inhibition against LPS control (TNF-α [2]; 0.5 μg/ml): 13.01↓ % | Expression of intracellular TNF-alpha, Mean ± S.E (TNF-α [2]; 0.5 μg/ml): 2.34 ± 0.07 | % TNF-alpha inhibition against LPS control (TNF-α [2]; 1.0 μg/ml): 24.16↓ % | Expression of intracellular TNF-alpha, Mean ± S.E (TNF-α [2]; 1.0 μg/ml): 2.04 ± 0.06 | % TNF-alpha inhibition against LPS control (TNF-α [2]; 5.0 μg/ml): 50.55% | Expression of intracellular TNF-alpha, Mean ± S.E (TNF-α [2]; 5.0 μg/ml): 1.33 ± 0.06 | % TNF-alpha inhibition against LPS control (TNF-α [2]; 10.0 μg/ml): 60.59% | Expression of intracellular TNF-alpha, Mean ± S.E (TNF-α [2]; 10.0 μg/ml): 1.06 ± 0.03 | Expression of intracellular TNF-alpha, Mean ± S.E (TNF-α [2]; […]): 1.84 ± 0.03 | expression of intracellular IL-2 (IL-2): decrease | expression of IFN-γ (IFN-γ): decrease
